From patent US10548911B2, “Small molecule anti-scarring agents” (UNIVERSITY OF ROCHESTER, priority 2014, dated 2020)
Entries after “also recorded” stand apart in the source; their conditions may differ.

How the values were obtained:
capsular fibroblasts = assay: Breast implant capsular fibroblasts treated with TGF-β and salinomycin (Western blot, slot blot, morphology); format: cell-based, human; details: for Thy1 expression: 250 nM, untreated and TGF-β (2.5 ng/mL) treated cultures
Protocol: FIG. 9 is a set of images of capsular fibroblasts explanted from primary tissue samples cultured in vitro. Treatment consisted of 48 hours growth in serum-starved media (0.1% fetal bovine serum), followed by administration of vehicle, 2.5 ng/mL transforming growth factor-beta (TGF-β), 250 nM salinomycin (SNC), or TGF-β plus SNC for 72 hours. […] Original magnification 200×.
After treatment, cells were lysed for protein extraction and analysis via Western blot. Data are presented in graph form (FIG. 10A) and as images of Western blots (FIG. 10B). […] All protein expression is relative to β-tubulin levels. At time of cell harvest, media supernatant was also taken and equal volumes run on a slot blot to compare presence of extracellular soluble collagen. In like manner, collagen I increased with TGF- and was reduced with co-administration of SNC. **=p<0.01; ***=p<0.001; ****=p<0.0001.
Peri-implant tissue samples from irradiated (n=4) and non-irradiated (n=9) breast capsules were analyzed for expression of Thy1 mRNA by qRT-PCR (FIG. 8). Additionally, capsular fibroblasts were grown in vitro and treated with the pro-fibrotic cytokine transforming growth factor-β (TGFβ) and the polyether ionophore salinomycin, and analyzed for expression of Thy1, αSMA, fibronectin, and collagen by Western blot (FIG. 9 and FIGS. 10A-B). To investigate the fundamental role of Thy1 in capsular fibroblast/myofibroblast formation, Thy1 expression was depleted using Thy1 siRNA (delivered by lentiviral transduction) (FIGS. 11A-B).

phospho-p38 = assay: Western blot of phospho-p38 in TGFβ-treated human orbital fibroblasts; format: cell-based; details: for reduction of phospho-p38 levels: 250 nM
Protocol: Therefore, activity of another signaling molecule that is involved in myofibroblast formation, namely the mitogen-activated protein kinase (MAPK), p38, was measured to assess its potential role in the observed results. P38 MAPKs are a class of protein kinases that respond to TGFβ, ultraviolet radiation and other stimuli. Phosphorylation and activation of p38 can lead to numerous downstream signaling pathways, including phosphorylation of Smad proteins.
To further test if salinomycin targets the p38 pathway to block myofibroblast formation, a plasmid encoding a mutant MKK6 (pcDNA3-flag MKK6(glu)) protein was used. MKK6 phosphorylates and thus activates p38 in response to extracellular signals such as TGFβ or other environmental stresses. The MKK6(glu) protein, which harbors glutamate mutations at amino acid residues serine 207 and threonine 211, is constitutively active and thus phosphorylates p38 irrespective of signal (Raingeaud et al., “MKK3- and MKK6-regulated gene expression is mediated by the p38 mitogen-activated protein kinase signal transduction pathway,” Mol. Cell. Biol. 16:1247-1255 (1996), which is hereby incorporated by reference in its entirety). Thus, if salinomycin is blocking the p38 signaling pathway, MKK6(glu) should overcome the effect of salinomycin. MKK6(glu) was first tested using the SBE4-TK-luc reporter plasmid. The luciferase reporter plasmid was introduced into human fibroblasts along with the MKK6(glu) plasmid or a control plasmid (pcDNA3-GFP). Cells were then treated with vehicle, TGFβ or TGFβ plus 250 nM salinomycin. After 24 hours, luciferase activity was measured (FIG. 6A). […] MKK6(glu) was further tested to assess whether it could attenuate the ability of salinomycin to inhibit p38 phosphorylation. Control or MKK6(glu) plasmids were introduced into human fibroblasts by electroporation and then cells were treated with TGFβ for 24 hours. Following treatment, cells were analyzed for flag-MKK6(glu) expression and phospho-p38 by Western blot (FIG. 6B). […] However, MKK6(glu) expression leads to a large induction of phospho-p38, regardless of salinomycin treatment. As a third test, control or MKK6(glu) plasmids were introduced into human fibroblasts by electroporation. After electroporation, cells were induced to form myofibroblasts by TGFβ treatment for 72 hours. Samples were analyzed for expression of flag-MKK6(glu), αSMA, calponin and β-tubulin by Western blot (FIG. 6C).

human fibroblasts = assay: BrdU incorporation assay (cell proliferation); format: cell-based; details: for basal fibroblast proliferation (BrdU incorporation): 250 nM, without TGFβ
Protocol: Human fibroblasts were seeded on a 96-well plate at a density of 1×10^5 cells/well. Cells were treated in triplicate. Cell proliferation was determined using the bromodeoxyuridine (BrdU) assay following manufacturer's instructions. Briefly, cells were treated with a BrdU label at a 1:2000 dilution for 24 h after the initial 72 h treatment with TGFβ+/−drugs. BrdU incorporation was measured using the BrdU Cell Proliferation Assay kit (Calbiochem, San Diego, Calif.) at 450-540 nm using a Varioskan microplate reader.
While salinomycin and other polyether ionophores blocked myofibroblast formation, it was next assessed whether these effects were a result of toxicity and/or due to a block of cell proliferation. Though the treatment doses are relatively low (efficacy in 100-250 nM range), a loss of cell viability could still be a possibility. To test this, human fibroblasts were treated with vehicle (DMSO), 50-250 nM salinomycin alone, TGFβ or TGFβ plus 250 nM salinomycin. As a positive control, fibroblasts were treated with the cytotoxic drug, puromycin. Treated cells were cultured in the presence of alamar blue reagent, which measures mitochondrial oxidation-reduction (REDOX) potential and serves as a quantitative viability sensor. After 72 hours of culture, alamar blue fluorescence was measured to assay cell viability (FIG. 4A). […] It was also tested whether salinomycin affects basal fibroblast proliferation. To address this, cells were treated with vehicle or 250 nm of either salinomycin or narasin for 24 hours in the presence of bromodeoxyuridine (BrdU) to measure cell proliferation ([…], first three bars). […] BrdU was also added to cells treated with TGFβ in the presence or absence of 250 nM salinomycin or narasin (FIG. 4B, last three bars). As expected, TGFβ induced human fibroblast proliferation. Remarkably, both salinomycin and narasin were able to beneficially block TGFβ induced proliferation by 4 to 5 fold, without affecting basal proliferation levels.

[1] = 250 nM plus TGF-β 2.5 ng/mL, 72 hours

With `CC[C@@H](C(=O)[C@@H](C)[C@@H](O)[C@H](C)[C@@H]1O[C@@H]([C@@H](CC)C(=O)O)CC[C@@H]1C)[C@H]1O[C@]2(C=C[C@@H](O)[C@]3(CC[C@@](C)([C@H]4CC[C@](O)(CC)[C@H](C)O4)O3)O2)[C@H](C)C[C@@H]1C` [salinomycin] the Alpha-SMA expression (capsular fibroblasts; [1]) was “below basal levels”, the “cell morphology (myofibroblastic differentiation)” value (capsular fibroblasts; [1]) was “appears to reduce the effect of TGF-β” and the Thy1 expression (capsular fibroblasts; 72 hours) was “dramatically reduced”. For the same molecule, the Thy1 expression (capsular fibroblasts; 72 hours, listed as SNC) was “significantly reduced”, the “TGFβ-increased αSMA and collagen I” value (capsular fibroblasts; explanted capsular fibroblasts, TGFβ plus salinomycin) was “nearly completely inhibited; also recorded: reduced” and the “reduction of phospho-p38 levels” value (phospho-p38; 5 hours) was “more than 2 fold”. For the same molecule, the “reduction of phospho-p38 levels” value (phospho-p38; 24 hours) was 10 fold, the phospho-p38 levels (phospho-p38; 5 hours TGFβ treatment) was “completely blocked” and the “inhibition of phospho-p38” value (phospho-p38; 24 hours TGFβ treatment) was 80%. For the same molecule, the “phosphorylation of p38” value (phospho-p38; control plasmid, TGFβ 24 hours) was “blocks phosphorylation of p38”, the “TGFβ induced proliferation (BrdU incorporation)” value (human fibroblasts; 250 nM plus TGFβ) was “significantly blocked TGFβ induced proliferation” and the “basal fibroblast proliferation (BrdU incorporation)” value (human fibroblasts) was “Neither salinomycin nor narasin blocked basal fibroblast proliferation”. The “basal fibroblast proliferation (BrdU incorporation)” value (human fibroblasts; listed as Salinomycin) was “did not affect basal fibroblast proliferation”.
